In PubChem BioAssay AID252 (DTP/NCI, 2004) one finds T/C data, which are given here for eight compounds.

“And” between values parts separate entries of the source, which are not always exact repeats. Identical values can stand only once. Toxic doses and inconclusive results are not listed.

In the assay the test system is BDF1 mice, intracerebral L1210 leukemia, survival T/C. The assay can be described thus: NCI In Vivo Anticancer Drug Screen. Data for tumor model L1210 Leukemia (intracerebral) in B6D2F1 (BDF1) mice. The note with it: higher = longer survival. The procedure, abridged: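 Antitumour effect is judged in mice with transplanted tumour by comparing survival of treated (T) against vehicle-dosed (C) groups as T/C.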

The mark [1] stands for this setting: endpoint: mean survival time, dose: 150.0 mg/kg/injection, schedule: Q01DX001 (ip), vehicle: carboxymethylcellulose (CMC).
Setting [2] is: endpoint: mean survival time, dose: 1.0 mg/kg/injection, schedule: Q01DX009 (ip), vehicle: saline.
The mark [3] stands for this setting: endpoint: mean survival time, dose: 2.0 mg/kg/injection, schedule: Q01DX009 (ip), vehicle: saline.

Consider `CS(=O)(=O)Nc1ccc(Nc2c3ccccc3nc3cc([N+](=O)[O-])ccc23)cc1`, for which the T/C is, setting by setting: (endpoint: mean survival time, dose: 1.25 mg/kg/injection, schedule: Q01DX009 (ip), vehicle: Klucel (hydroxypropylcellulose) (HPC)) 91 % of control; (endpoint: mean survival time, dose: 1.25 mg/kg/injection, schedule: Q01DX009 (sc), vehicle: Klucel (hydroxypropylcellulose) (HPC)) 106 % of control; (endpoint: mean survival time, dose: 2.5 mg/kg/injection, schedule: Q01DX009 (ip), vehicle: Klucel (hydroxypropylcellulose) (HPC)) 87 % of control; (endpoint: mean survival time, dose: 2.5 mg/kg/injection, schedule: Q01DX009 (sc), vehicle: Klucel (hydroxypropylcellulose) (HPC)) 97 % of control; (endpoint: mean survival time, dose: 3.12 mg/kg/injection, schedule: Q01DX001 (ip), vehicle: saline) 98 % of control; (endpoint: mean survival time, dose: 5.0 mg/kg/injection, schedule: Q01DX009 (ip), vehicle: Klucel (hydroxypropylcellulose) (HPC)) 89 % of control. For the same compound, the T/C is 103 % of control (endpoint: mean survival time, dose: 5.0 mg/kg/injection, schedule: Q01DX009 (sc), vehicle: Klucel (hydroxypropylcellulose) (HPC)); 98 % of control (endpoint: mean survival time, dose: 6.25 mg/kg/injection, schedule: Q01DX001 (ip), vehicle: saline); 102 % of control (endpoint: mean survival time, dose: 10.0 mg/kg/injection, schedule: Q01DX009 (sc), vehicle: Klucel (hydroxypropylcellulose) (HPC)); 101 % of control (endpoint: mean survival time, dose: 12.5 mg/kg/injection, schedule: Q01DX001 (ip), vehicle: saline); 101 % of control (endpoint: mean survival time, dose: 25.0 mg/kg/injection, schedule: Q01DX001 (ip), vehicle: saline); 90 % of control (endpoint: mean survival time, dose: 50.0 mg/kg/injection, schedule: Q01DX001 (ip), vehicle: saline).

`CN(N=O)C(=O)NCCCNC(=O)N(C)N=O`: the T/C is, setting by setting: under setting [1], 108 % of control; (endpoint: mean survival time, dose: 300.0 mg/kg/injection, schedule: Q01DX001 (ip), vehicle: carboxymethylcellulose (CMC)) 119 % of control.

Regarding `CCCOC1=C(N2CC2)C(=O)C(OCCC)=C(N2CC2)C1=O`, the T/C is 105 % of control (endpoint: mean survival time, dose: 0.25 mg/kg/injection, schedule: Q01DX009 (ip), vehicle: saline); 97 % of control (endpoint: mean survival time, dose: 0.5 mg/kg/injection, schedule: Q01DX005 (ip), vehicle: saline); 113 % of control (endpoint: mean survival time, dose: 0.5 mg/kg/injection, schedule: Q01DX009 (ip), vehicle: saline); 101 % of control (endpoint: mean survival time, dose: 1.0 mg/kg/injection, schedule: Q01DX005 (ip), vehicle: saline); 104 % of control and 302 % of control under setting [2]; 108 % of control (endpoint: mean survival time, dose: 2.0 mg/kg/injection, schedule: Q01DX005 (ip), vehicle: saline). The T/C by setting is: under setting [3], 111 % of control and 117 % of control; (endpoint: mean survival time, dose: 4.0 mg/kg/injection, schedule: Q01DX005 (ip), vehicle: saline) 106 % of control; (endpoint: mean survival time, dose: 4.0 mg/kg/injection, schedule: Q01DX009 (ip), vehicle: saline) 117 % of control.

For `O=NN1CCCNC1=O`, the T/C (endpoint: mean survival time, dose: 75.0 mg/kg/injection, schedule: Q01DX001 (ip), vehicle: carboxymethylcellulose (CMC)) was 119 % of control; the T/C (endpoint: mean survival time, dose: 111.0 mg/kg/injection, schedule: Q01DX001 (ip), vehicle: carboxymethylcellulose (CMC)) was 117 % of control; the T/C under setting [1] is 153 % of control; the T/C (endpoint: mean survival time, dose: 167.0 mg/kg/injection, schedule: Q01DX001 (ip), vehicle: carboxymethylcellulose (CMC)) is 186 % of control; the T/C (endpoint: mean survival time, dose: 250.0 mg/kg/injection, schedule: Q01DX001 (ip), vehicle: carboxymethylcellulose (CMC)) is 91 % of control.

As to `N[C@H](C(=O)O)[C@@H]1CC(Cl)=NO1`, the T/C is 109 % of control under setting [2]; 114 % of control under setting [3]; 116 % of control (endpoint: mean survival time, dose: 16.0 mg/kg/injection, schedule: Q01DX009 (ip), vehicle: saline); 100 % of control (endpoint: mean survival time, dose: 32.0 mg/kg/injection, schedule: Q01DX009 (ip), vehicle: saline); 120 % of control (endpoint: median survival time, dose: 4.0 mg/kg/injection, schedule: Q01DX009 (ip), vehicle: saline); 124 % of control (endpoint: median survival time, dose: 8.0 mg/kg/injection, schedule: Q01DX009 (ip), vehicle: saline). Also, the T/C is 100 % of control (endpoint: median survival time, dose: 32.0 mg/kg/injection, schedule: Q01DX009 (ip), vehicle: saline) and 100 % of control (endpoint: median survival time, dose: 64.0 mg/kg/injection, schedule: Q01DX009 (ip), vehicle: saline).

On to `Nc1nncs1`, for which the T/C (endpoint: mean survival time, dose: 135.0 mg/kg/injection, schedule: Q01DX009 (ip), vehicle: saline) is 101 % of control; the T/C (endpoint: median survival time, dose: 64.0 mg/kg/injection, schedule: Q01DX005 (ip), vehicle: saline with Tween-80) was 120 % of control; the T/C (endpoint: median survival time, dose: 512.0 mg/kg/injection, schedule: Q01DX005 (ip), vehicle: saline with Tween-80) was 100 % of control.

`COc1cccc(NC(=O)N(CCCl)N=O)c1`: the T/C is 115 % of control (endpoint: mean survival time, dose: 18.0 mg/kg/injection, schedule: Q01DX001 (ip), vehicle: carboxymethylcellulose (CMC)); 115 % of control (endpoint: mean survival time, dose: 27.0 mg/kg/injection, schedule: Q01DX001 (ip), vehicle: carboxymethylcellulose (CMC)); 121 % of control (endpoint: mean survival time, dose: 40.0 mg/kg/injection, schedule: Q01DX001 (ip), vehicle: carboxymethylcellulose (CMC)); 97 % of control (endpoint: mean survival time, dose: 60.0 mg/kg/injection, schedule: Q01DX001 (ip), vehicle: carboxymethylcellulose (CMC)).

Turning to `O=C1CN=C(c2ccc[nH]2)c2cc(Cl)ccc2N1`, the T/C by setting is: (endpoint: mean survival time, dose: 248.0 mg/kg/injection, schedule: Q01DX009 (sc), vehicle: Klucel (hydroxypropylcellulose) (HPC)) 103 % of control; (endpoint: mean survival time, dose: 377.0 mg/kg/injection, schedule: Q01DX009 (sc), vehicle: Klucel (hydroxypropylcellulose) (HPC)) 108 % of control; (endpoint: mean survival time, dose: 571.0 mg/kg/injection, schedule: Q01DX009 (sc), vehicle: Klucel (hydroxypropylcellulose) (HPC)) 100 % of control; (endpoint: mean survival time, dose: 858.0 mg/kg/injection, schedule: Q01DX009 (sc), vehicle: Klucel (hydroxypropylcellulose) (HPC)) 108 % of control; (endpoint: mean survival time, dose: 1300.0 mg/kg/injection, schedule: Q01DX009 (sc), vehicle: Klucel (hydroxypropylcellulose) (HPC)) 122 % of control; (endpoint: median survival time, dose: 1.75 mg/kg/injection, schedule: Q01DX009 (ip), vehicle: other) 102 % of control. For the same compound, the T/C was 102 % of control (endpoint: median survival time, dose: 3.15 mg/kg/injection, schedule: Q01DX009 (ip), vehicle: other); 106 % of control (endpoint: median survival time, dose: 6.3 mg/kg/injection, schedule: Q01DX009 (ip), vehicle: other); 102 % of control (endpoint: median survival time, dose: 12.5 mg/kg/injection, schedule: Q01DX009 (ip), vehicle: other); 110 % of control (endpoint: median survival time, dose: 25.0 mg/kg/injection, schedule: Q01DX009 (ip), vehicle: other).
